One data set has as its target T1, CYP450 3A4 (Homo sapiens, UniProt P08684).
T1 construct: purchased Invitrogen
The data set can be described thus: CYP inhibition assay (Vivid fluorometric), 3A4. In kind it is biochemical. The settings on record: 1 μM in Table 5. Here is the method: (§1) CYP450 (1A2, 2C9, 3A4) enzyme assay was performed by a fluorometric assay using a Vivid® CYP450 screening kit (Invitrogen, USA, CA) in a 96-well black plate according to manufacturer's instructions with some modifications. The assay was performed at room temperature, and the final assay volume was 100 μL. […]
(§2) A master pre-mixture (enzyme (0.5 nmol recombinant human CYP450 enzyme)/NADP regeneration solution (333 mM glucose-6-phosphate dissolved, 30 U/mL glucose-6-phosphate dehydrogenase in 100 mM KH2PO4 solution at pH 8.0)) was prepared as a CYP450 reaction buffer (200 mM KH2PO4, pH 8.0). The master pre-mixture was added to each well of the 96 well plate, followed by the vehicle DMSO (control) and test compounds, and the mixture was preincubated for 10 minutes in the plate for background reading. Subsequently, the enzyme reaction was immediately initiated through the addition of CYP450 substrate/NADP^+ mixture. After incubation for 40 minutes, the fluorescence of the product was measured with a CHAMELEON™ multi-technology plate reader (2C9, 3A4: excitation wavelength of 530 nm and emission wavelength of 590 nm, 1A2: excitation wavelength of 415 nm and emission wavelength of 460 nm). The effect of the test compounds on CYP450 (1A2, 2C9, 3A4) was expressed as the percentage of enzyme activity.

The target of the next data set is T2, CYP450 2C9 (Homo sapiens, UniProt P11712).
T2 construct: purchased Invitrogen
T2 sequence (P11712 whole entry): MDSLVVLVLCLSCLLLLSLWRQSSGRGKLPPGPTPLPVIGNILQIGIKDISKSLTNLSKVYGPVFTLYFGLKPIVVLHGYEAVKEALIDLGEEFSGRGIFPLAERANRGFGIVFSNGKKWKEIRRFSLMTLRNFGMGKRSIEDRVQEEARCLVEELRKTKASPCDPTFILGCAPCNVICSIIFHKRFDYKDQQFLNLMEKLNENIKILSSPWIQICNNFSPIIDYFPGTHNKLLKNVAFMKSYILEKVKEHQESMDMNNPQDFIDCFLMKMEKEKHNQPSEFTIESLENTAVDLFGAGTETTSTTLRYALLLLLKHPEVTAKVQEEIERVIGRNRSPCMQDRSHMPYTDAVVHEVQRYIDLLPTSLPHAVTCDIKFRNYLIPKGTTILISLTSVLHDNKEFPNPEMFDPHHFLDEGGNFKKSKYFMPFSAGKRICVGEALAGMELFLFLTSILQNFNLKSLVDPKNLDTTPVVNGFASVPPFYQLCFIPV
Nature of the data set: CYP inhibition assay (Vivid fluorometric), 2C9. To be noted: 1 μM in Table 5. In kind it is biochemical. As for the experimental part: as §1, §2

For a further data set, the target named is T3, CYP1A2 (Homo sapiens, UniProt P05177).
T3 construct: purchased Invitrogen
T3 sequence (P05177 1-516): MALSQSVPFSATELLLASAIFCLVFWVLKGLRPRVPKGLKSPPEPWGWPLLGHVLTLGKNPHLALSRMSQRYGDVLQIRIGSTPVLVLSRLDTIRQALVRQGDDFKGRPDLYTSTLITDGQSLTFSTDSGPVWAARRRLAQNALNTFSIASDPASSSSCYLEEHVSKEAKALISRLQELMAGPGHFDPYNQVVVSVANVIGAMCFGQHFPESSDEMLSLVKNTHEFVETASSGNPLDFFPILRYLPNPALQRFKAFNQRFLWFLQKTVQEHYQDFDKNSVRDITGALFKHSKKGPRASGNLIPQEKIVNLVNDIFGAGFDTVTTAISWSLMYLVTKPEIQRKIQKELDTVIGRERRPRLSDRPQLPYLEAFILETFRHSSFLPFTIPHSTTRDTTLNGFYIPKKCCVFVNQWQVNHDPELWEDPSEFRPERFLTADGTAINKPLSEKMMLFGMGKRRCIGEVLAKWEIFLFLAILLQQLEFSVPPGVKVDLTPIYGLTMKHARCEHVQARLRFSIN
The data set can be described thus: CYP inhibition assay (Vivid fluorometric), 1A2. In kind it is biochemical. The settings on record: human, recombinant human CYP1A2, pH 8; 1 μM in Table 5; read-out: CYP450 inhibition, 1A2 isozyme. Here is the method: as §1, §2

For the next data set, the target named is T4, CYP450 1A2 (Homo sapiens, UniProt P05177).
T4 construct: purchased Invitrogen
T4 sequence (P05177 1-516): T3 sequence (P05177 1-516)
The data set can be described thus: CYP inhibition assay (Vivid fluorometric), 1A2. In kind it is biochemical. To be noted: 1 μM in Table 5. Here is the method: as §1, §2

Another data set deals with T5, rP2X2/3 receptors (Rattus norvegicus, UniProt P49653+P49654).
T5 sequence (P49653 1-472): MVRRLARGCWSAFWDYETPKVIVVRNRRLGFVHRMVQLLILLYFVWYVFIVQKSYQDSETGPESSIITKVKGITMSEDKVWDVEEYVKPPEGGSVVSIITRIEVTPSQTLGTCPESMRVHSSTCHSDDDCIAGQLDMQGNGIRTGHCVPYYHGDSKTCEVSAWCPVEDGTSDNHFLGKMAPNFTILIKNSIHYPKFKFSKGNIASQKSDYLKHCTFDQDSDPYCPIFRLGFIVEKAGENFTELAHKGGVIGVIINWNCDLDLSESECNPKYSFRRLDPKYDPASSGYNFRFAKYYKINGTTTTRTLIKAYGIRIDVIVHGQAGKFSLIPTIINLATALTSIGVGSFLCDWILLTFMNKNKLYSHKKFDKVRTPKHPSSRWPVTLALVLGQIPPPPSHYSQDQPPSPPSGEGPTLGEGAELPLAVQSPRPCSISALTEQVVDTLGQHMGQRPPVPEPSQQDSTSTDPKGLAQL
T5 sequence (P49654 1-397): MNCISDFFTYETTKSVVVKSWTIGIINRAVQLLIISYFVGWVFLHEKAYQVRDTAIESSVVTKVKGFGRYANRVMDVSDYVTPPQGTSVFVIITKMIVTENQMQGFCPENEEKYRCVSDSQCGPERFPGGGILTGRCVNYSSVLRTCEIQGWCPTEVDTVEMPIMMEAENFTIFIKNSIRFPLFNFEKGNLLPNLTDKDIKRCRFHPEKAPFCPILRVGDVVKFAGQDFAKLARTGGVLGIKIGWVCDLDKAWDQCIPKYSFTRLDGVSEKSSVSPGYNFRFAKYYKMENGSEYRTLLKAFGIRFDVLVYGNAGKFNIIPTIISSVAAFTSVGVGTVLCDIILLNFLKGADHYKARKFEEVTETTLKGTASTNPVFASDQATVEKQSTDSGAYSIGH
The data set can be described thus: Antagonistic effect for heterologous rP2X2/3 receptors. In kind it is cell-based. The settings on record: FIG. 2. The text has this: FIGS. 2a to 2c show the antagonistic activity of Compound 29 of the present invention for P2X3 and P2X2/3 receptors (2a: hP2X3R, 2b: […]).

1 compound from patent US11319289B2, “5-hydroxy pyridine-based compound for use as P2X1 and P2X3 receptor antagonist and pharmaceutical composition comprising same” (GWANGJU INSTITUTE OF SCIENCE AND TECHNOLOGY, priority 2017, dated 2022) can be followed below.

T1 sequence (P08684 whole entry): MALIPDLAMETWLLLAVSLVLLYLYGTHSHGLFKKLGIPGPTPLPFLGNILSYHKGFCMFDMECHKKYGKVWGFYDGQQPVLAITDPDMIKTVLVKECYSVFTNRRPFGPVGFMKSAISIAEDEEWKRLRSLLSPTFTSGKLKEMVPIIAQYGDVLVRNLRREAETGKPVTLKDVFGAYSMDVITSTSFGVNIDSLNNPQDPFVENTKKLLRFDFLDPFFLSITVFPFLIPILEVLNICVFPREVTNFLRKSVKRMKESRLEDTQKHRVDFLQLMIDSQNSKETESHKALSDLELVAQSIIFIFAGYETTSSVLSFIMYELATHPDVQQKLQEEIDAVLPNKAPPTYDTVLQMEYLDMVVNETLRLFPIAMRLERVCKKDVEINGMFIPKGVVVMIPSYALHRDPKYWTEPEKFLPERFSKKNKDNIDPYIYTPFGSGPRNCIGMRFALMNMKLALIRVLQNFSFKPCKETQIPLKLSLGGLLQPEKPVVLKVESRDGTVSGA

On to `CCCc1nc(Cc2cccc(Oc3ccccc3)c2)c(C)c(C(=O)O)c1O` [Compound 29, 3-Hydroxy-5-methyl-6-(3-phenoxybenzyl)-2-propylisonicotinic acid], for which the “CYP450 inhibition, 3A4 isozyme” value at CYP450 3A4 was “weak inhibitory effect”. Moreover, the “CYP450 inhibition, 2C9 isozyme” value on CYP450 2C9 is “weak inhibitory effect”. For the same compound, the inhibition at 40 min, 1 µM on CYP1A2 stood at 36 ± 3%. Also, on CYP450 1A2, the “CYP450 inhibition, 1A2 isozyme” value is “weak inhibitory effect”. Further, on rP2X2/3 receptors, the “antagonistic effect for heterologous rP2X2/3 receptors” value is on record as “showed an antagonistic effect”.
